Data as given in US5055396A, “Diagnostic methods and systems for quantifying APO AI” (Scripps Clinic and Research Foundation, priority 1987, dated 1991).

Tested on: MAB AI-18
Test: Competitive RIA: inhibition of MAB AI-18 binding to solid-phase Apo AI/HDL by competitor antigen or peptide
Set-up: species or system mouse
Settings: for ability of the peptide to immunologically mimic a native conserved epitope of Apo AI: FIG. 5, proline 99 deleted or substituted by glycine; for Immunoreactivity (concentration of peptide competitor required to achieve a B/Bo value of 0.5): competitive RIA, MAB AI-18 ascites 1:1.25×10^5, solid-phase Apo AI/HDL; for B/Bo: background-adjusted; for expression of the epitope recognized by MAB AI-18 after NaOH treatment: NaOH treated Apo AI/HDL, 18 hours at about 20 degrees C; for immunoreactivity values (in words): higher value represents a lower affinity
Protocol: One hundred ul of PBS (0.15M NaCl, 0.01M NaPO4, pH 7.2) containing 10 ug/ml Apo AI/HDL were admixed to the wells of microtiter plates. The plates were maintained for 1 hour at 20 degrees C. on a rotating platform to allow the Apo AI/HDL to adhere to the wells and form solid supports. After aspirating excess liquid from the wells, 200 ul of block solution (3% BSA, 3% NGS in PBS) was admixed to each well, and the wells were maintained for 30 minutes at 20 degrees C. on a rotating platform. Subsequently, the blocking solution was removed by aspiration and the wells were washed 3 times with SPRIA buffer.
In control wells either competing antigen or antibody was replaced by PBS containing 3% BSA.
The immunoreaction admixtures were maintained about 16 hours at 4 degrees C. on a rotating platform to permit formation of solid-phase immunoreaction products. […] The labeling immunoreaction admixtures so formed were maintained for 4 hours at 4 degrees C. on a rotating platform.
[…] of serial 3 fold dilutions of each sample prepared in Table 3 were admixed as competitor in the RIA described in this Example.
Fifty microliters of the stock of 2 fold serial dilutions of the stock were used as competitor in the RIA described in this Example.

| Immunoreactivity (concentration of peptide competitor required to achieve a B/Bo value of 0.5) | slope of logit transformed competition data (competitor HDL or fresh plasma, FIG. 2) | CPM of 125I-labeled solid phase immunoreaction product (competitor dilution 1:3) [CPM] | B/Bo (competitor dilution 1:3) | CPM of 125I-labeled solid phase immunoreaction product (competitor dilution 1:9) [CPM] | B/Bo (competitor dilution 1:9) | CPM of 125I-labeled solid phase immunoreaction product (competitor dilution 1:27) [CPM] | B/Bo (competitor dilution 1:27) | CPM of 125I-labeled solid phase immunoreaction product (competitor dilution 1:81) [CPM] | B/Bo (competitor dilution 1:81) | CPM of 125I-labeled solid phase immunoreaction product (competitor dilution 1:243) [CPM] | B/Bo (competitor dilution 1:243) | CPM of 125I-labeled solid phase immunoreaction product (competitor dilution 1:729) [CPM] | B/Bo (competitor dilution 1:729) | CPM of 125I-labeled solid phase immunoreaction product (competitor dilution Neat) [CPM] | B/Bo (competitor dilution Neat) | expression of the epitope recognized by MAB AI-18 after NaOH treatment | immunoreactivity values (in words) | Substance | ability of the peptide to immunologically mimic a native conserved epitope of Apo AI |
| --- | --- | --- | --- | --- | --- | --- | --- | --- | --- | --- | --- | --- | --- | --- | --- | --- | --- | --- | --- |
| > 10,000 ug protein/ml |  |  |  |  |  |  |  |  |  |  |  |  |  |  |  |  |  | AKVQGYLDDFQ [AI95-105 (G/P)] | substantially decreases the ability of the peptide to immunologically mimic a native conserved epitope |
| 45 ug protein/ml |  |  |  |  |  |  |  |  |  |  |  |  |  |  |  |  |  | AKVQPYLDDFQ [AI95-105] |  |
| > 10,000 ug protein/ml |  |  |  |  |  |  |  |  |  |  |  |  |  |  |  |  |  | AKVQYLDDFQ [AI95-105 (-P)] | substantially decreases the ability of the peptide to immunologically mimic a native conserved epitope |
|  | -2.03 | 2348 | 0.277 | 3778 | 0.460 | 5057 | 0.624 | 5868 | 0.729 | 6380 | 0.794 | 6679 | 0.833 | 1152 | 0.123 |  |  | Apo AI/HDL: Apo AI when it is present on HDL particles [reference compound] |  |
|  |  | 2852 | 0.341 | 4399 | 0.540 | 6195 | 0.771 | 6988 | 0.872 | 7483 | 0.936 | 7406 | 0.926 | 1110 | 0.118 | stable to NaOH treatments |  | B: NaOH treated Apo AI/HDL, 5 ul 0.01N NaOH, pH 6.34 |  |
|  |  | 2479 | 0.293 | 4502 | 0.553 | 6005 | 0.746 | 6618 | 0.825 | 7277 | 0.909 | 7485 | 0.936 | 1070 | 0.112 | stable to NaOH treatments |  | C: NaOH treated Apo AI/HDL, 50 ul 0.01N NaOH, pH 7.04 |  |
|  |  | 1174 | 0.126 | 2746 | 0.328 | 3854 | 0.470 | 5220 | 0.645 | 6385 | 0.795 | 6917 | 0.863 | 589 | 0.051 | decrease in expression of the epitope |  | D: NaOH treated Apo AI/HDL, 5 ul 1N NaOH, pH 10.67 |  |
|  |  | 553 | 0.046 | 881 | 0.088 | 1543 | 0.173 | 2283 | 0.268 | 3338 | 0.404 | 4918 | 0.607 | 263 | 0.009 | decrease in expression of the epitope |  | E: NaOH treated Apo AI/HDL, 15 ul 1N NaOH, pH 11.33 |  |
|  |  | 185 | -.001 | 281 | 0.011 | 342 | 0.019 | 516 | 0.041 | 744 | 0.071 | 1295 | 0.141 | 222 | 0.004 | decrease in expression of the epitope |  | F: NaOH treated Apo AI/HDL, 50 ul 1N NaOH, pH 11.86 |  |
|  |  | 305 | 0.016 | 339 | 0.019 | 497 | 0.039 | 771 | 0.074 | 1157 | 0.124 | 1891 | 0.218 | 195 | 0.000 | decrease in expression of the epitope |  | G: NaOH treated Apo AI/HDL, 250 ul 1N NaOH, pH 12.85 |  |
| > 10,000 ug protein/ml |  |  |  |  |  |  |  |  |  |  |  |  |  |  |  |  |  | KVQPYL (UniProt P02647 120-125, looked up, fragment) [AI96-101] |  |
| > 10,000 ug protein/ml |  |  |  |  |  |  |  |  |  |  |  |  |  |  |  |  | high immunoreactivity values | LDDFQKKWQEE [AI101-111] |  |
|  |  | 2542 | 0.301 | 4799 | 0.527 | 5786 | 0.718 | 6745 | 0.841 | 7270 | 0.090 | 7255 | 0.907 | 965 | 0.099 |  |  | Sample A: Apo AI/HDL, no NaOH treatment control, pH 6.26 [reference compound] |  |
| > 10,000 ug protein/ml |  |  |  |  |  |  |  |  |  |  |  |  |  |  |  |  | high immunoreactivity values | VKAKVQPYL [AI93-101] |  |
| > 10,000 ug protein/ml |  |  |  |  |  |  |  |  |  |  |  |  |  |  |  |  | high immunoreactivity values | YLDDFQ (UniProt P02647 124-129, looked up, fragment) [AI100-105] |  |

| Substance | Immunoreactivity (concentration of peptide competitor required to achieve a B/Bo value of 0.5) | slope of logit transformed competition data (competitor HDL or fresh plasma, FIG. 2) | CPM of 125I-labeled solid phase immunoreaction product (competitor dilution 1:3) [CPM] | B/Bo (competitor dilution 1:3) | CPM of 125I-labeled solid phase immunoreaction product (competitor dilution 1:9) [CPM] | B/Bo (competitor dilution 1:9) | CPM of 125I-labeled solid phase immunoreaction product (competitor dilution 1:27) [CPM] | B/Bo (competitor dilution 1:27) | CPM of 125I-labeled solid phase immunoreaction product (competitor dilution 1:81) [CPM] | B/Bo (competitor dilution 1:81) | CPM of 125I-labeled solid phase immunoreaction product (competitor dilution 1:243) [CPM] | B/Bo (competitor dilution 1:243) | CPM of 125I-labeled solid phase immunoreaction product (competitor dilution 1:729) [CPM] | B/Bo (competitor dilution 1:729) | CPM of 125I-labeled solid phase immunoreaction product (competitor dilution Neat) [CPM] | B/Bo (competitor dilution Neat) | expression of the epitope recognized by MAB AI-18 after NaOH treatment | immunoreactivity values (in words) | ability of the peptide to immunologically mimic a native conserved epitope of Apo AI |
| --- | --- | --- | --- | --- | --- | --- | --- | --- | --- | --- | --- | --- | --- | --- | --- | --- | --- | --- | --- |
| LEEVKAKVQPYLDDFQKKWQEE [AI90-111] | 9 ug protein/ml |  |  |  |  |  |  |  |  |  |  |  |  |  |  |  |  |  |  |
| QKKWQEEMELYR [AI105-116] | > 10,000 ug protein/ml |  |  |  |  |  |  |  |  |  |  |  |  |  |  |  |  | high immunoreactivity values |  |
| SKDLEEVKAKVQPYL [AI87-101] | 8,400 ug protein/ml |  |  |  |  |  |  |  |  |  |  |  |  |  |  |  |  | high immunoreactivity values |  |
| SKDLEEVKAKVQPYLDDFQ [AI87-105] | 10 ug protein/ml |  |  |  |  |  |  |  |  |  |  |  |  |  |  |  |  |  |  |
